Test results: patent US20260102383A1, “LPAR1 Inhibitors” (AbbVie Inc., priority 2024, published 2026)
Like-named read-outs stand apart in the source and are kept apart here. Marks after values point to notes of the source that are not given here.

Experiments:
[1] = tested on: disease-relevant skin proteins in bleomycin-induced skin fibrosis; test: Bleomycin-evoked skin fibrosis model, skin protein levels (ELISA, MSD U-plex); format: in vivo, C57B6J mice
Description: (§1) The activity of Compound 15 was measured using a bleomycin-evoked skin fibrosis model.
(§2) For the bleomycin model of skin fibrosis, C57B6J mice were purchased at 9 to 11 weeks of age. Upon arriving, mice were group-housed 10 per cage in individually ventilated cages, with a normal 12:12 hour light: dark cycle. Animals were acclimated to the animal facilities for a period of at least 10 days prior to initiation of bleomycin model studies; mouse ears were tagged for animal identification. At the initiation of bleomycin administration, 93M diet gel was also added to the cages of all mice and available ad libitum for the duration of the experiment. For all animals studied, food and water were available ad libitum.
(§3) The upper back region of the mouse was shaved and two circles (˜1 cm diameter) were drawn onto the skin to identify the location for bleomycin injection. To induce skin fibrosis, mice received subcutaneous injections of bleomycin (10 units/kg) or phosphate-buffered saline (PBS) during Week 1 (D0-D4) and week 2 (D7-D10) at a volume of 100 μL into the two marked injection sites (for a total volume of 200 μL). […] For pharmacological assessment, mice received either vehicle or 1×, 3×, or 10×mg/kg of a dose of Compound 15 orally, twice daily, from Day 10 to 28. On Day 28, animals were humanely euthanized, and plasma and 2 to 8 mm back skin biopsy punches collected. The ALK5 inhibitor, SB-525334 was also included in the study as a positive control. SB-525334 was administered at a dose of 4.5×mg/kg following the same dosing regimen described for Compound 15. All treatments were administered at a volume of 1×mL/kg body weight.
For protein measurement, ½ of an 8-mm biopsy punch was homogenized in 500 μL DI water containing extraction buffer and cell extraction enhancer solution, using a Bead Ruptor 24 with CryoCool (OMNI). ELISA assays were performed on the lysates to measure Fibronectin and Procollagen1a1 and a multiplexed MSD U-plex assay was performed to measure MCP-1 and CXCL1. All kits were run according to the manufacturers' instructions. Skin protein levels were normalized to total protein in the lysate and expressed per milligram of total protein.
(§4) Data from gene and protein measurements were analyzed using GraphPad Prism 7 (GraphPad Software, San Diego, CA, USA). Group comparisons were conducted by a one-way ANOVA, followed by Dunnett's multiple comparisons test.
(§5) In the subcutaneous bleomycin-induced skin fibrosis mouse model, Compound 15 was assessed after the skin fibrosis was established during Days 1 through 10. Compound 15 was administered twice daily by oral gavage from Day 10 through Day 28 as described in Table C.

human LPAR1 = molecular target: T1, human LPAR1 (Homo sapiens, UniProt Q92633); test: Arrestin assay (Arrestin Reporter EDG2-bla U2OS), inhibition of LPA-stimulated signal; format: cell-based; settings: TangoEDG2-bla U2OS cells expressing human LPAR1, 0.25 μM LPA
T1 construct: host or cells: TangoEDG2-bla U2OS cells
T1 sequence (Q92633 whole entry): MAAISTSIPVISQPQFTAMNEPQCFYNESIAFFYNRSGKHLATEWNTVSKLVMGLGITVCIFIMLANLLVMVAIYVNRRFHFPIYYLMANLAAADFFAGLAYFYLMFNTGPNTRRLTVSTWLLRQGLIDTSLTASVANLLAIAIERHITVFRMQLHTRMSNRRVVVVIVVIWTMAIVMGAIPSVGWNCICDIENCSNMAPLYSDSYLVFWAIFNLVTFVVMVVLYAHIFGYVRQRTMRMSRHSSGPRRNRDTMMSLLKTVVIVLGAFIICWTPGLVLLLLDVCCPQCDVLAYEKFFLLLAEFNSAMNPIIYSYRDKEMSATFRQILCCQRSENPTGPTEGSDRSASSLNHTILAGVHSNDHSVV
In short: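 IC50 comes from a variable-slope 4-parameter fit of % inhibition, calculated from the beta-lactamase FRET ratio (emission 460/530 nm, excitation 409 nm, 2 h development at RT). Compounds, 10 μM down to 0.00006 μM in 3-fold steps, were given 1 h before 0.25 μM final LPA for 3 h in TangoEDG2-bla U2OS cells.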

[2] = tested on: pro-fibrotic and pro-inflammatory genes in bleomycin-induced skin fibrosis; test: Bleomycin-evoked skin fibrosis model, skin gene expression (TaqMan); format: in vivo, C57B6J mice; settings: for % Inhibition by Concentration vs Bleo (mean ± SEM), Col1a1 gene / % Inhibition by Concentration vs Bleo (mean ± SEM), Col6a3 gene / % Inhibition by Concentration vs Bleo (mean ± SEM), Col8a1 gene / % Inhibition by Concentration vs Bleo (mean ± SEM), Fn1 gene / % Inhibition by Concentration vs Bleo (mean ± SEM), Lpar1 gene / % Inhibition by Concentration vs Bleo (mean ± SEM), Mmp2 gene / % Inhibition by Concentration vs Bleo (mean ± SEM), Serpine1 gene / % Inhibition by Concentration vs Bleo (mean ± SEM), Timp1 gene: skin
Description: as §1, §2, §3
For tissue gene expression measurement, an 8-mm skin biopsy punch was homogenized in 300 μL RLT buffer containing β-mercaptoethanol (1:100) and using a QIAgen TissueLyser II. RNA was then extracted using the RNeasy Fibrous Mini Kit and purified RNA analyzed for gene expression using TaqMan Kits (Thermofisher) with indicated probes (Table B). Expression data for each sample were normalized to the housekeeping gene (Rplp0) and expressed as fold change relative to the sham treated mice.
as §4, §5

[3] = 1x mg/kg PO BID Day 10-28, vs bleomycin/vehicle
[4] = 3x mg/kg PO BID Day 10-28, vs bleomycin/vehicle
[5] = 10x mg/kg PO BID Day 10-28, vs bleomycin/vehicle
[6] = 4.5x mg/kg PO BID Day 10-28, vs bleomycin/vehicle
[7] = read-out: Arrestin Reporter EDG2-bla U2OS Human Merged IC50

SMILES: CC(C)c1ccnn1C1(C(=O)Nc2ccc(Cl)cc2OC(F)F)CCN(C[C@H](C(=O)O)C2CCOCC2)CC1 (single isomer, unassigned) [Compound 15]
- % Inhibition by Drug Treatment, CXCL1 protein [1, 3]: 56** %
- % Inhibition by Drug Treatment, Fibronectin protein [1, 3]: 29%
- % Inhibition by Drug Treatment, MCP-1 protein [1, 3]: 50** %
- % Inhibition by Drug Treatment, Procollagen1a1 protein [1, 3]: 67*** %
- % Inhibition by Drug Treatment, CXCL1 protein [1, 4]: 71*** %
- % Inhibition by Drug Treatment, Fibronectin protein [1, 4]: 46*** %
- % Inhibition by Drug Treatment, MCP-1 protein [1, 4]: 59** %
- % Inhibition by Drug Treatment, Procollagen1a1 protein [1, 4]: 74*** %
- % Inhibition by Drug Treatment, CXCL1 protein [1, 5]: 76*** %
- % Inhibition by Drug Treatment, Fibronectin protein [1, 5]: 46*** %
- % Inhibition by Drug Treatment, MCP-1 protein [1, 5]: 73*** %
- % Inhibition by Drug Treatment, Procollagen1a1 protein [1, 5]: 77*** %
- IC50 (human LPAR1; read-out: Arrestin Reporter EDG2-bla U2OS Human IC50): 0.0478 µM
- key measures of skin inflammation and fibrosis ([2]; mice, 1×, 3×, and 10×mg/kg): significantly reduced
- % Inhibition by Concentration vs Bleo (mean ± SEM), Col1a1 gene ([2]; 1x mg/kg PO BID Day 10-28): 58 ± 12 %
- % Inhibition by Concentration vs Bleo (mean ± SEM), Col6a3 gene ([2]; 1x mg/kg PO BID Day 10-28): 62 ± 24%
- % Inhibition by Concentration vs Bleo (mean ± SEM), Col8a1 gene ([2]; 1x mg/kg PO BID Day 10-28): 16 ± 23%
- % Inhibition by Concentration vs Bleo (mean ± SEM), Fn1 gene ([2]; 1x mg/kg PO BID Day 10-28): 31 ± 20%
- % Inhibition by Concentration vs Bleo (mean ± SEM), Lpar1 gene ([2]; 1x mg/kg PO BID Day 10-28): 54 ± 24%
- % Inhibition by Concentration vs Bleo (mean ± SEM), Mmp2 gene ([2]; 1x mg/kg PO BID Day 10-28): 39 ± 26%
- % Inhibition by Concentration vs Bleo (mean ± SEM), Serpine1 gene ([2]; 1x mg/kg PO BID Day 10-28): 28 ± 31%
- % Inhibition by Concentration vs Bleo (mean ± SEM), Timp1 gene ([2]; 1x mg/kg PO BID Day 10-28): 34 ± 21%
- % Inhibition by Concentration vs Bleo (mean ± SEM), Col1a1 gene ([2]; 3x mg/kg PO BID Day 10-28): 77 ± 8 %
- % Inhibition by Concentration vs Bleo (mean ± SEM), Col6a3 gene ([2]; 3x mg/kg PO BID Day 10-28): 108 ± 9 %
- % Inhibition by Concentration vs Bleo (mean ± SEM), Col8a1 gene ([2]; 3x mg/kg PO BID Day 10-28): 43 ± 14%
- % Inhibition by Concentration vs Bleo (mean ± SEM), Fn1 gene ([2]; 3x mg/kg PO BID Day 10-28): 76 ± 5 %
- % Inhibition by Concentration vs Bleo (mean ± SEM), Lpar1 gene ([2]; 3x mg/kg PO BID Day 10-28): 97 ± 9 %
- % Inhibition by Concentration vs Bleo (mean ± SEM), Mmp2 gene ([2]; 3x mg/kg PO BID Day 10-28): 81 ± 15 %
- % Inhibition by Concentration vs Bleo (mean ± SEM), Serpine1 gene ([2]; 3x mg/kg PO BID Day 10-28): 88 ± 5 %
- % Inhibition by Concentration vs Bleo (mean ± SEM), Timp1 gene ([2]; 3x mg/kg PO BID Day 10-28): 81 ± 7 %
- % Inhibition by Concentration vs Bleo (mean ± SEM), Col1a1 gene ([2]; 10x mg/kg PO BID Day 10-28): 88 ± 6 %
- % Inhibition by Concentration vs Bleo (mean ± SEM), Col6a3 gene ([2]; 10x mg/kg PO BID Day 10-28): 117 ± 8 %
- % Inhibition by Concentration vs Bleo (mean ± SEM), Col8a1 gene ([2]; 10x mg/kg PO BID Day 10-28): 55 ± 11 %
- % Inhibition by Concentration vs Bleo (mean ± SEM), Fn1 gene ([2]; 10x mg/kg PO BID Day 10-28): 75 ± 4 %
- % Inhibition by Concentration vs Bleo (mean ± SEM), Lpar1 gene ([2]; 10x mg/kg PO BID Day 10-28): 95 ± 8 %
- % Inhibition by Concentration vs Bleo (mean ± SEM), Mmp2 gene ([2]; 10x mg/kg PO BID Day 10-28): 55 ± 12%
- % Inhibition by Concentration vs Bleo (mean ± SEM), Serpine1 gene ([2]; 10x mg/kg PO BID Day 10-28): 75 ± 9 %
- % Inhibition by Concentration vs Bleo (mean ± SEM), Timp1 gene ([2]; 10x mg/kg PO BID Day 10-28): 84 ± 5 %

SMILES: Cc1cccc(-c2[nH]c(C(C)(C)C)nc2-c2ccc3nccnc3c2)n1 [SB-525334, reference compound]
- % Inhibition by Drug Treatment, CXCL1 protein [1, 6]: 49* %
- % Inhibition by Drug Treatment, Fibronectin protein [1, 6]: 82*** %
- % Inhibition by Drug Treatment, Procollagen1a1 protein [1, 6]: 69*** %
- % Inhibition by Drug Treatment, MCP-1 protein ([1]; PO BID Day 10-28, vs bleomycin/vehicle): 17%

SMILES: CC(C)c1ccnn1C1(C(=O)Nc2ccc(Cl)cc2OC(F)F)CCN(CC(C(=O)O)C2CCOC2)CC1 (stereo not drawn) [Compound 136, 3-[4-[[4-chloro-2-(difluoromethoxy)phenyl]carbamoyl]-4-(5-isopropylpyrazol-1-yl)-1-piperidyl]-2-tetrahydrofuran-3-yl-propanoic acid]
- IC50 (human LPAR1; [7]): 0.0467 µM

SMILES: CC(C)c1ccnn1C1(C(=O)Nc2ccc(Cl)cc2OC(F)F)CCN([C@H]2C[C@](C#N)(C(=O)O)C2)CC1 [Compound 111, (1r,3r)-3-[4-[[4-chloro-2-(difluoromethoxy)phenyl]carbamoyl]-4-(5-isopropylpyrazol-1-yl)-1-piperidyl]-1-cyano-cyclobutanecarboxylic acid]
- IC50 (human LPAR1; [7]): 0.221 µM

SMILES: CC(C)c1ccnn1C1(C(=O)Nc2ccc(Cl)cc2OC(F)F)CCN(C[C@@H](COCC(F)(F)F)C(=O)O)CC1 [Compound 233, (2S)-2-[[4-[[4-chloro-2-(difluoromethoxy)phenyl]carbamoyl]-4-(5-isopropylpyrazol-1-yl)-1-piperidyl]methyl]-3-(2,2,2-trifluoroethoxy)propanoic acid]
- IC50 (human LPAR1; [7]): 0.00894 µM

SMILES: CC(C)c1ccnn1C1(C(=O)Nc2ccc(Cl)cc2OC(F)F)CCN(CC(C)(C)C(=O)O)CC1 [Compound 83, 3-[4-[[4-chloro-2-(difluoromethoxy)phenyl]carbamoyl]-4-(5-isopropylpyrazol-1-yl)-1-piperidyl]-2,2-dimethyl-propanoic acid]
- IC50 (human LPAR1; [7]): 0.0244 µM

SMILES: CC(C)c1ccnn1C1(C(=O)Nc2ccc(Cl)cc2OC(F)F)CCN(CC(C)(C(=O)O)C2CCOCC2)CC1 (stereo not drawn) [Compound 52, 3-[4-[[4-chloro-2-(difluoromethoxy)phenyl]carbamoyl]-4-(5-isopropylpyrazol-1-yl)-1-piperidyl]-2-methyl-2-tetrahydropyran-4-yl-propanoic acid]
- IC50 (human LPAR1; [7]): 0.0705 µM

SMILES: CC(C)c1ccnn1C1(C(=O)Nc2ccc(Cl)cc2OC(F)F)CCN(CC2(C(=O)O)CCN(C(=O)OC(C)(C)C)CC2)CC1 [Compound 4, 1-tert-butoxycarbonyl-4-[[4-[[4-chloro-2-(difluoromethoxy)phenyl]carbamoyl]-4-(5-isopropylpyrazol-1-yl)-1-piperidyl]methyl] piperidine-4-carboxylic acid]
- IC50 (human LPAR1; [7]): 0.0228 µM

SMILES: COC1CN([C@@H](CN2CCC(C(=O)Nc3ccc(Cl)cc3OC(F)F)(n3nccc3C(C)C)CC2)C(=O)O)C1 [Compound 178, (2S)-3-[4-[[4-chloro-2-(difluoromethoxy)phenyl]carbamoyl]-4-(5-isopropylpyrazol-1-yl)-1-piperidyl]-2-(3-methoxyazetidin-1-yl)propanoic acid]
- IC50 (human LPAR1; [7]): 0.123 µM

SMILES: CO[C@]1(C(=O)O)C[C@@H](N2CCC(C(=O)Nc3ccc(Cl)cc3OC(F)F)(n3ncc(F)c3C(C)C)CC2)C1 [Compound 204, (1r,3r)-3-[4-[[4-chloro-2-(difluoromethoxy)phenyl]carbamoyl]-4-(4-fluoro-5-isopropyl-pyrazol-1-yl)-1-piperidyl]-1-methoxy-cyclobutanecarboxylic acid]
- IC50 (human LPAR1; [7]): 0.0469 µM

SMILES: CC(C)c1ccnn1C1(C(=O)Nc2ccc(Cl)cc2OC(F)F)CCN(CC2(C(=O)O)CCN(C(=O)CC3CCCC3)CC2)CC1 [Compound 47, 4-[[4-[[4-chloro-2-(difluoromethoxy)phenyl]carbamoyl]-4(5-isopropylpyrazol-1-yl)-1-piperidyl]methyl]-1-(2-cyclopentylacetyl) piperidine-4-carboxylic acid]
- IC50 (human LPAR1; [7]): 0.0148 µM
